Data taken from patent US20170291905A1, “ARGININE […] INHIBITORS AND USES THEREOF” (Epizyme, Inc., priority 2014, published 2017).
Counter-ions that a name gives are not always drawn.

Target: T1, full-length human PRMT1 isoform 1 (GST-tagged) (Homo sapiens, UniProt Q99873)
T1 construct: GST-tagged PRMT1 was eluted with 50 mM Tris, 2 mM glutathione, pH 7.8, dialysed in buffer A and concentrated; made in house; host or cells: High Five insect cells (baculovirus)
Assay: PRMT1 biochemical assay (3H-SAM Flashplate, histone H4 36-50 peptide)
Conditions: 0.5 nM PRMT1, 30 min preincubation, 20 nM peptide
Procedure, shortened: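 GST-PRMT1 (0.5 nM) preincubated 30 min at room temperature with compound in bicine buffer pH 7.6. Reaction then run with 200 nM 3H-SAM plus 1.5 uM SAM and 20 nM biotinylated H4 36-50 peptide, 2% DMSO. Stopped with excess cold SAM, and methylated peptide captured on streptavidin Flashplates for counting; % inhibition versus DMSO and 1 mM SAH controls, 3- or 4-parameter fit.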

T1 sequence (Q99873 with tags, fused parts or gaps): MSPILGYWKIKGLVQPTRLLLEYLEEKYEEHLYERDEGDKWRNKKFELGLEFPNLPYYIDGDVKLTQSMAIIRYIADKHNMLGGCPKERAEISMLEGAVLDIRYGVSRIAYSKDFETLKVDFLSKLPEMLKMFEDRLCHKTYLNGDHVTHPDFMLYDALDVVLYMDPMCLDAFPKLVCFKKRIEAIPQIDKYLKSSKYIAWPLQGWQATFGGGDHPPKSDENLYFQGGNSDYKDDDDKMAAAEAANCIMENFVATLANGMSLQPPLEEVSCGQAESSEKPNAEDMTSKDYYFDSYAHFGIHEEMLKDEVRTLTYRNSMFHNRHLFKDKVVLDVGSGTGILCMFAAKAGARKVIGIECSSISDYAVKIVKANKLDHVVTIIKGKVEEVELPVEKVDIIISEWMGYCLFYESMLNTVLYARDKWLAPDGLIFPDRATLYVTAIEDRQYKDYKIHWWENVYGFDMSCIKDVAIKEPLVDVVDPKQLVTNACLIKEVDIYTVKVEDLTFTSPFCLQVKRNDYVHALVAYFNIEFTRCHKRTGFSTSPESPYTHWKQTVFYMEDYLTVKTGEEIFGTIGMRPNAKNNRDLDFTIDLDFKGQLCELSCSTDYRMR

| SMILES | IC50 [nM] |
| --- | --- |
| CNCCN(C)Cc1scnc1[C@H]1CC[C@]2(CC1)CC(C)(C)CO2 [compound 84] | 14 |
| CNCCN(C)Cc1nn(C)nc1C1CCC2(CC1)CC(C)(C)CO2 (stereo not drawn) [compound 86] | 50.1 |
| CNCCN(C)Cc1nn[nH]c1[C@H]1CC[C@]2(CC1)CC(C)(C)CO2 [compound 89] | 59.7 |
| CNCCN(C)Cc1nncn1[C@H]1CC[C@]2(CC1)CC(C)(C)CO2 [compound 90] | > 10000 |
| CNCCN(C)Cc1nccn1[C@H]1CC[C@]2(CC1)CC(C)(C)CO2 [compound 91] | 1020 |
| CNCCN(C)Cc1nnc(C)n1[C@H]1CC[C@]2(CC1)CC(C)(C)CO2 [compound 93] | > 10000 |
| CNCCN(C)Cc1c(Cl)ncn1[C@H]1CC[C@]2(CC1)CC(C)(C)CO2 [compound 97] | 318 |
| CNCCN(C)Cc1cncn1[C@H]1CC[C@]2(CC1)CC(C)(C)CO2 [compound 98] | 4360 |
| CNCCN(C)Cc1nc(C)sc1[C@H]1CC[C@]2(CC1)CC(C)(C)CO2 [compound 99] | 35.6 |
| CNCCN(C)Cc1sc(C)nc1[C@H]1CC[C@]2(CC1)CC(C)(C)CO2 [compound 100] | 33.5 |
| CN(CCN)Cc1nn(C)cc1[C@H]1CC[C@]2(CC1)CC(C)(C)CO2 [compound 102] | 21.2 |
| CNCCN(C)Cc1nn(C)cc1[C@H]1CC[C@]2(CC1)CC(C)(C)CO2 [compound 103] | 37.2 |
| CN(CCN)Cc1c[nH]nc1[C@H]1CC[C@@]2(CC1)CC(C)(C)CO2 [compound 105] | 5.68 |
| CN(CCN)Cc1c[nH]nc1[C@H]1CC[C@]2(CC1)CC(C)(C)CO2 [compound 106] | 45.3 |
| CNCCN(C)Cc1c(C)noc1[C@H]1CC[C@@]2(CC1)CC(C)(C)CO2 [compound 113] | 79.5 |
| CNCCN(C)Cc1c(C)noc1[C@H]1CC[C@]2(CC1)CC(C)(C)CO2 [compound 114] | 121 |
| CNCCN(C)Cc1n[nH]cc1[C@H]1CC[C@@]2(CC1)CC(C)(C)CO2 [compound 115] | 11.5 |
| CNCCN(C)Cc1n[nH]cc1[C@H]1CC[C@]2(CC1)CC(C)(C)CO2 [compound 116] | 22.9 |
| CNCCN(C)Cc1nocc1[C@H]1CC[C@@]2(CC1)CC(C)(C)CO2 [compound 117] | 51.3 |
| CNCCN(C)Cc1nocc1[C@H]1CC[C@]2(CC1)CC(C)(C)CO2 [compound 118] | 409 |
| CCOCC1(COCC)CCC(c2n[nH]cc2CN(C)CCN(C)C)CC1 [compound 121] | 38 |
| CCOCC1(COCC)CCC(c2nn(C)cc2CN(C)CCNC)CC1 [compound 122] | 21.1 |
| CCOCC1(COCC)CCC(c2n[nH]cc2CN(C)CCN)CC1 [compound 123] | 4.28 |
| CCOCC1(COCC)CCC(c2nn(C)cc2CN(C)CCN)CC1 [compound 124] | 13.7 |
| CNCCN(C)Cc1c[nH]nc1C1CCC2(CC1)CC(C)(C)OC2=O (stereo not drawn) [compound 125] | 10.7 |
| CNCCN(C)Cc1c[nH]nc1[C@H]1CC[C@@]2(CC1)COC(C)(C)C2 [compound 126, N1-((3-((5r,8r)-3,3-dimethyl-2-oxaspiro[4.5]decan-8-yl)-1H-pyrazol-4-yl)methyl)-N1,N2-dimethylethane-1,2-diamine] | 14.3 |
| CNCCN(C)Cc1c[nH]nc1[C@H]1CC[C@]2(CCCCO2)CC1 [compound 127, methyl([2-[methyl([3-[(6s,9r)-1-oxaspiro[5.5]undecan-9-yl]-1H-pyrazol-4-yl]methyl)amino]ethyl])amine bistrifluoroacetic acid salt] | 7.33 |
